Square brackets hold non-standard residues; d marks the D form. Peptide text beside a SMILES is read from it. * marks the point of attachment. Dolaproine = CO[C@@H]([C@@H]1CCCN1)[C@@H](C)C(=O)O; Dil = CC[C@H](C)[C@H](NC)[C@@H](CC(=O)O)OC; X1 = C[C@@H](N*)[C@@H](O)c1ccccc1; NMeV = CN[C@H](C(=O)O)C(C)C

We go through five compounds from patent US7964567B2, “Monomethylvaline compounds capable of conjugation to ligands” (Seattle Genetics, Inc., priority 2003, dated 2011).

Series [1] concerns CD30+ cell line Karpas 299. Kind of series: Cytotoxicity determination (resazurin, General Procedure I), Karpas 299. It is filed as cell-based, human. The following applies: Karpas 299, 96 hours; for IC50: resazurin. How it is done: General Procedure I—Cytotoxicity determination. To evaluate the cytotoxicity of Exemplary Conjugates 7-10, cells were seeded at approximately 5-10,000 per well in 150 μl of culture medium then treated with graded doses of Exemplary Conjugates 7-10 in quadruplicates at the initiation of assay. Cytotoxicity assays were carried out for 96 hours after addition of test compounds. Fifty μl of the resazurin dye was added to each well during the last 4 to 6 hours of the incubation to assess viable cells at the end of culture. Dye reduction was determined by fluorescence spectrometry using the excitation and emission wavelengths of 535 nm and 590 nm, respectively. For analysis, the extent of resazurin reduction by the treated cells was compared to that of the untreated control cells.

Series [2] can be described thus: Plasma clearance pharmacokinetics in rats. Format: in vivo, Sprague-Dawley rats. The following applies: rat, free drug. How it is done:
Pharmacokinetic plasma clearance and stability of ADC were investigated in rats and cynomolgus monkeys. Plasma concentration was measured over time. […] Rats are a non-specific model for ErbB receptor antibodies, since the rat is not known to express HER2 receptor proteins.
AUC inf is the area under the plasma concentration-time curve from time of dosing to infinity and is a measure of the total exposure to the measured entity (drug, ADC). CL is defined as the volume of plasma cleared of the measured entity in unit time and is expressed by normalizing to body weight. T1/2 term is the half-life of the drug in the body measured during its elimination phase.
Animals were dosed by bolus tail vein injection (IV Push). […] Total antibody was measured by ELISA—ECD/GxhuFc-HRP. Antibody drug conjugate was measured by ELISA—MMAE/MMAF/ECD-Bio/SA-HRP.

In another series the test system is SK-BR-3 cells. Kind of series: In vitro cell proliferation assay (CellTiter-Glo), SK-BR-3 cells. It is filed as cell-based, human. The following applies: ADC incubated 3-5 days.

Procedure for SK-BR-3 cells: Cell-based in vitro assays were used to measure viability (proliferation), cytotoxicity, and induction of apoptosis (caspase activation) of the ADC of the invention.
The homogeneous assay procedure involves adding the single reagent (CellTiter-Glo® Reagent) directly to cells cultured in serum-supplemented medium. Cell washing, removal of medium and multiple pipetting steps are not required. The system detects as few as 15 cells/well in a 384-well format in 10 minutes after adding reagent and mixing. The cells may be treated continuously with ADC, or they may be treated and separated from ADC.
The homogeneous “add-mix-measure” format results in cell lysis and generation of a luminescent signal proportional to the amount of ATP present. The amount of ATP is directly proportional to the number of cells present in culture. […] Viable cells are reflected in relative luminescence units (RLU). […] Data can be recorded by luminometer or CCD camera imaging device. The luminescence output is presented as relative light units (RLU), measured over time.
Control wells were prepared containing medium and without cells. • 3. […] The plate was incubated at room temperature for 10 minutes to stabilize the luminescence signal. • 8. Luminescence was recorded and reported in graphs as RLU=relative luminescence units.

Usually IC50 stands for the point on the concentration scale where inhibition reaches its midpoint. Consider cAC10-9: cAC10 Conjugate of Compound 9, for which, in series [1], the “activity compared with cAC10-val-cit-MMAE” value is given as “slightly more active” and the concentration for half-maximal inhibition (IC50) worked out at 0.5 ng/mL.
For `CC[C@H](C)[C@@H]([C@@H](CC(=O)N1CCC[C@H]1[C@H](OC)[C@@H](C)C(=O)N[C@H](C)[C@@H](O)c1ccccc1)OC)N(C)C(=O)[C@@H](NC(=O)[C@@H](NC)C(C)C)C(C)C` [MMAE, mono-methyl auristatin E, reference compound] (H-[NMeV]V[Dil][Dolaproine]-X1), in series [2] (206 μg/kg), the AUCinf came to 3.71 µg·days/mL, the CL was 2.61 mL/h/kg and the “T½ Term.” value was 17.8 h.
On to “cAC10-val-cit-MMAE: cAC10 (anti-CD30) val-cit MMAE conjugate used as comparator [reference compound]”, for which, in series [1], the “IC50” value is 6 ng/mL.
“H-MC-vc-PAB-MMAE: trastuzumab conjugated via a cysteine to MC-val-cit-PAB-MMAE; preparations of different loading”: the “IC50 (μg ADC/ml)” value in the series on SK-BR-3 cells amounted to 0.015 μg ADC/ml.
In general, Cmax refers to the maximum level reached in the sampled fluid or tissue. For `CC[C@H](C)[C@@H]([C@@H](CC(=O)N1CCC[C@H]1[C@H](OC)[C@@H](C)C(=O)N[C@@H](Cc1ccccc1)C(=O)O)OC)N(C)C(=O)[C@@H](NC(=O)[C@@H](NC)C(C)C)C(C)C` [Compound 2, N-methylvaline-valine-dolaisoleuine-dolaproine-phenylalanine] (H-[NMeV]V[Dil][Dolaproine]F-OH), the Cmax in series [2] (Sprague-Dawley, plasma, intravenous, 200 ug/kg) came to 280 ng/mL. For the same compound, the half-life in series [2] (Sprague-Dawley, plasma, intravenous, 200 ug/kg, 200 μg/kg, read-out: T½ Term. (converted)) is 5.38 h. In series [2] (200 μg/kg), this compound returned an AUCinf of 0.99 µg·days/mL and a CL of 8.5 mL/h/kg.
